# Experimental data reported in the METLIN SMRT retention time set (Domingo-Almenara et al. 2019).
# Assay: gradient 5% acetonitrile 3 min, to 50% in 2 min, to 85% in 15 min, held 3 min, 100 µL/min
# Settings: column: Zorbax Extend-C18 2.1 x 50 mm; eluents: water / acetonitrile, 0.1% formic acid
# How it was run: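 Over 3 months, pure standards in mixtures of ~100 molecules were run by HPLC coupled to a quadrupole time-of-flight mass spectrometer in positive and negative ionization mode. The column was a Zorbax Extend-C18 (2.1 × 50 mm, 1.8 μm) at 100 μL/min, eluted with water and acetonitrile each holding 0.1% formic acid, with 40 μL dead and 900 μL dwell volumes. Retention time was determined from adduct peaks chosen by software and checked manually.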
row,Compound,RP-LC retention time [s]
1,CC(=O)Nc1cc(-c2nc(-c3ccc4oc(-c5ccccc5)nc4c3)no2)ccc1C,738
2,CC(C)Cn1nc2n(c1=O)CCN(S(=O)(=O)c1ccccc1C(F)(F)F)CC2,847
3,Cc1noc(C)c1CCC(=O)N1CC(c2nc3ccccc3[nH]2)C1,552
4,Cc1nc(-c2ccc(-c3noc(-c4ccncc4)n3)cc2)cs1,1050
5,COc1cc(NC(=O)C2CC(=O)N(CCc3c[nH]c4ccc(F)cc34)C2)cc(OC)c1OC (configuration not stated),744
6,COc1ccc(C2C(C(=O)NC3CCCCCC3)CCC(=O)N2c2ccc(OC)cc2)cc1 (configuration not stated),807
7,CC(Oc1ccccc1)C(=O)N1CCN(c2nc(CN3CCCCC3)cs2)CC1 (configuration not stated),650
8,O=C(c1ccsc1)N1CCCC1Cc1noc(-c2cnccn2)n1 (configuration not stated),707
9,Cc1cccc(NC(=O)N2CC(N(C3CCOCC3)S(C)(=O)=O)C2)c1,706
10,Cc1ccc(NC(=O)N2CCC(c3nc(C(=O)N(C)C)c(C)o3)CC2)cc1,705
11,CCNC(=O)Nc1ccc2c(c1)CN(S(=O)(=O)C(C)C)CCO2,676
12,Cc1ccc(CNS(=O)(=O)c2cc3c4c(c2)CCC(=O)N4CCC3)cc1,868
13,NC(=O)CCCCn1ccc(NC(N)=NCC(F)(F)F)n1,617
14,Cc1ccc(C(=O)NCc2ccc(-n3ccnc3)cc2)s1,602
15,CCCc1nc2cccnc2n1C1CCN(C(=O)c2ccc(OC)nc2)C1 (configuration not stated),588
16,Cc1cc(C(=O)Nc2ccc3c(c2)CCC(=O)N3C)no1,686
17,CC(NC(=O)C(=O)NC1CCCCC1)C(c1cccs1)N1CCOCC1 (configuration not stated),604
18,CCc1ccc(CNC(=O)c2nnc(-c3ccc(S(=O)(=O)N(C)C)cc3)o2)cc1,959
19,COC(=O)c1ccc(C(=O)OC)c(NC(=O)CSc2nc(C)cc(C)n2)c1,852
20,Cc1cc(C)n(CCC(=O)NC2CCN(c3ccc(=O)[nH]n3)C2)n1 (configuration not stated),579
21,CCN(CC)CCNS(=O)(=O)c1cc(-c2cc(C)[nH]n2)sc1C,589
22,O=S(=O)(NCC(c1cccnc1)c1c[nH]c2ccccc12)c1ccc2c(c1)CCCC2 (configuration not stated),790
23,Cc1ccc(Cl)cc1N(C)C(=O)C1CCCN(c2ncnc3c2nc2n3CCCCC2)C1 (configuration not stated),918
24,O=C(CSc1nc2ccccc2[nH]1)Nc1nccs1,613

# Further lines, results first:
row,RP-LC retention time [s],Compound
1,868,COc1ccc(-c2nnc(-c3cccc(S(=O)(=O)N4CCOCC4)c3)o2)cc1
2,808,CC1=C(c2ccccc2)S(=O)(=O)N=C1N1CCCN(C(=O)c2ccccc2C)CC1
3,906,O=C(C1=NN(CCc2ccccc2)c2cc(Cl)ccc2S1(=O)=O)N1CCOCC1
4,892,Cn1cc(C(=O)NCc2cccc(Cl)c2)c(S(=O)(=O)N2CCSCC2)n1
5,1010,CCCn1c(=O)sc2cc(S(=O)(=O)N3CCC(C(=O)Nc4ccc(C)cc4)CC3)ccc21
6,886,Cc1nn(-c2ccccc2)c(C)c1S(=O)(=O)N1CCC(C(=O)NCc2ccccc2)CC1
7,828,CCn1c(=O)c(N2CCC(C(=O)NCCc3ccco3)CC2)nc2cccnc21
8,692,O=C1[C@H]2CN(Cc3c[nH]c4ccccc34)C[C@H]2C(=O)N1CCc1ccccc1
9,891,CCn1c(C(=O)Nc2cccc(C)n2)cc2c(=O)oc3ccccc3c21
10,1020,O=C(N1CCC(Cc2nc(-c3ccc(F)cc3)no2)CC1)C1(c2ccccc2)CC1
11,768,Cc1ccc(CN2CCN(C3CCN(C(=O)Nc4ccc(C)cc4)CC3)C(=O)C2=O)cc1
12,938,Cc1ccc(C(=O)N2CCC3(CC2)N=C(c2cccc(Br)c2)NO3)cc1
13,604,O=C(NCCN1CCOCC1)C1CC(=O)N(CCc2c[nH]c3ccc(Cl)cc23)C1 (configuration not stated)
